According to patent US12084680B2, “Methods for efficient derivation of human motor neurons from diverse spinal regions” (Wisconsin Alumni Research Foundation, priority 2016, dated 2024):

Assays:
H9 hESCs [1] = assay: OLIG2 induction in thoracic and lumbar neuroectoderm at various day 5 reseed densities; type: cell-based, human; details: for PAX6+/OLIG2+ cells: reseed 1.5×10^5 cells/cm^2
From the text: However, OLIG2 induction was less efficient upon employing the standard deterministic HOX patterning protocol to generate thoracic and lumbar neuromesoderm followed by a CHIR boost and application of RA and SHH/PM (FIG. 6A). Only 11±2% and 67±9% of the cells in the thoracic and lumbar cultures, respectively, were PAX6^+/OLIG2^+ (FIGS. 6B-6C). We noted that our standard neuromesodermal protocol always used a reseed density of 1.5×10^5 cells/cm^2, which generates a relatively confluent but not tightly packed cell monolayer 24 h after seeding. Having previously determined that cell density and cell-cell contacts can serve as modulators of neural fate, we explored the effects of seeding density on OLIG2 induction.
(§1) hESCs were dissociated with accutase (Thermo Fisher Scientific) and reseeded at 1×10^5 cells/cm2 in E8 medium containing 10 μM ROCK inhibitor (Y27632; R&D Systems) on 6-well polystyrene tissue culture plates coated with 100 μg/mL poly-L-ornithine (PLO; Sigma) and 8 μg/well VTN-NC. The timelines and relevant growth factors/small molecules for all differentiation procedures are described in detail in the Results section and its accompanying figures. Cells were differentiated for various amounts of time in E6 medium containing the same insulin concentration as E8 medium as described above with varying combinations of soluble factors (product information and concentration ranges are found in Table 2). For neuromesodermal induction and HOX propagation, cells were sequentially cultured with FGF8b, CHIR99021 (CHIR), GDF11, and dorsomorphin (DM) as previously described. Briefly, to initiate the neuromesodermal state, cells were changed to E6 medium followed by addition of FGF8b (200 ng/ml) 24 h later. To generate cervical neuromesodermal progenitors, cells were washed with PBS, treated with accutase, and re-seeded in E6 medium containing 200 ng/ml FGF8b, 3 μM CHIR, and 10 μM Y27632 on VTN-NC-coated plates at a density of 1.5×10^5 cells/cm^2 for 48 h. To generate thoracic neuromesodermal progenitors, cells were passaged again after 72 h of CHIR treatment and re-seeded at different densities as described in the text.
(§2) Thoracic identity was reached after an additional 24 h. Then, to reach the lumbosacral level, cells were given 30 ng/ml GDF11 and 1 μM DM for an additional 48 h. For neuroectoderm induction and generation of OLIG2^+ progenitors, FGF8b was removed at the designated time points and the concentration of CHIR was increased for 6 h as described in the text, followed by a transition to media containing RA, PM, and SHH for a period of 48 h. For differentiation of the OLIG2^+ progenitors to motor neurons, cells were subcultured by en bloc passage using a cell scraper, reseeded at a 1:200 ratio in Matrigel-coated 8-well chamber slides, and differentiated for 14 days in E6 medium containing 1 μM RA, 100 nM PM, and 100 ng/mL SHH, with media exchange every 3 days (10 μM Y27632 was included during the en bloc passaging step and removed after the first media exchange). For differentiation of lumbar cultures, 1 μM DM was included in all steps. For the myoblast co-culture experiments, OLIG2^+ cultures were en bloc passaged, frozen in E6 medium containing 10% DMSO, shipped to a different location, and thawed 1:10 in 6-well plates under the same conditions as described in FIG. 5. To facilitate neuronal maturation prior to myoblast co-culture, 5 μM DAPT (Tocris) was added from days 8-14 post-thaw. Flow cytometry, RT-PCR, and qPCR (RPS18 and CTNNB1 Taqman primers from Thermo Fisher Scientific) were conducted as previously described.

H9 hESCs [2] = assay: NKX6.1 induction in neurally differentiating H9 hESCs after 24 h treatment (flow cytometry, RT-PCR, day 3); type: cell-based, human
Protocol: NKX6.1 is the earliest expressed marker in the motor neuron development cascade in vivo, so we examined its expression in response to Wnt/β-catenin, RA, and SHH signaling during hPSC motor neuron differentiation. H9 hESCs were differentiated in E6 medium for 2 days to initiate neural fate acquisition34 and then treated with combinations of RA, purmorphamine (PM, a small molecule agonist of SHH signaling), and CHIR for 24 h (FIG. 4A). […] Using the H9 ishcat2 line, we observed that CHIR-mediated induction of NKX6.1 was β-catenin-dependent, as the optimal 3 days of shRNA-mediated CTNNB1 knockdown upstream of CHIR treatment was required to maximally reduce NKX6.1 induction to 44±1% (FIG. 4E). The correlation between NKX6.1 knockdown and days of doxycycline treatment was presumably due to the time delay for shRNA synthesis and subsequent gene knockdown in Tet-on systems. […] Exogenously added WNT3A (200 ng/mL) could also induce NKX6.1 expression (60±14%) (FIG. 4G), providing further evidence for the involvement of Wnt/β-catenin signaling in this process. In contrast, simultaneous treatment with CHIR and BMP4 (200 ng/mL), a dorsal patterning factor, reduced the expression of NKX6.1 from 91±1% to 68±2% (FIG. 4H).
as §1
as §2, with “Flow cytometry, RT-PCR, and qPCR (RPS18 and CTNNB1 Taqman primers from Thermo Fisher Scientific) were conducted as previously described.” left out

**Q.** What does the source list for `Cc1c[nH]c(-c2cnc(NCCNc3ccc(C#N)cn3)nc2-c2ccc(Cl)cc2Cl)n1` [CHIR, CHIR99021]?
**A.** PAX6+/OLIG2+ cells (H9 hESCs [1]; lumbar culture, CHIR boost then RA and SHH/PM): 67±9%; OLIG2+ cells (H9 hESCs [1]; lumbar neuroectoderm, reseed 4×10^5 cells/cm^2, with dorsomorphin, CHIR boost then RA and SHH/PM): 82±3%; PAX6+/OLIG2+ cells (H9 hESCs [1]; thoracic culture, CHIR boost then RA and SHH/PM): 11±2%; OLIG2+ cells (H9 hESCs [1]; thoracic neuroectoderm, day 5 reseed 1×10^5 cells/cm^2, CHIR boost then RA and SHH/PM): 19±5%; OLIG2+ cells (H9 hESCs [1]; thoracic neuroectoderm, day 5 reseed 2×10^5 cells/cm^2, CHIR boost then RA and SHH/PM): 48±3%; OLIG2+ cells (H9 hESCs [1]; thoracic neuroectoderm, day 5 reseed 4×10^5 cells/cm^2, CHIR boost then RA and SHH/PM): 80±3%; NKX6.1 expression (flow cytometry) (H9 hESCs [2]; CHIR 4 μM without BMP4, day 3): 91±1%; NKX6.1 expression (flow cytometry) (H9 hESCs [2]; CHIR alone 6 μM, 24 h, analysed day 3): 98±1%; NKX6.1 and OLIG2 gene expression (RT-PCR) (H9 hESCs [2]; CHIR alone 6 μM, 24 h, day 3): sufficient to induce NKX6.1 but not OLIG2 gene expression
